29 compounds from patent US20050197350A1, “Novel quinoline, tetrahydroquinazoline, and pyrimidine derivatives and methods of treatment related to the use thereof” (TAISHO PHARMACEUTICAL CO., LTD., priority 2003, published 2005) can be followed below.

Counter-ions that a name gives are not always drawn.

The target of one test is MCH receptor (Homo sapiens, UniProt Q99705). Kind of test: High throughput functional screening FLIPR/FDSS6000 (intracellular Ca2+ evoked by MCH). The test is classed as cell-based. The settings on record: FLIPR/FDSS, antagonist activity vs 50 nM MCH; class by percent of control at 10^−7 M or IC50; read-out: class. From the text:
High Throughput Functional Screening: FLIPR™
This assay utilized a non-endogenous, constitutively active version of the MCH receptor.
The concentration of free Ca^2+ in the cytosol of any cell is extremely low, whereas its concentration in the extracellular fluid and endoplasmic reticulum (ER) is very high. Thus, there is a large gradient tending to drive Ca^2+ into the cytosol across both the plasma membrane and ER. The FLIPR™ and FDSS6000™ systems (Molecular Devices Corporation, […] Photonics K.K.) are designed to perform functional cell-based assays, such as the measurement of intracellular calcium for high-throughput screening. The measurement of fluorescent is associated with calcium release upon activation of the Gq-coupled receptors.
Fluorometric Imaging Plate Reader system was used to allow for rapid, kinetic measurements of intracellular fluorescence in 96 well microplates (or 384 well microplates). Simultaneous measurements of fluorescence in all wells can be made by FLIPR or FDSS6000™ every second with high sensitivity and precision. These systems are ideal for measuring cell-based functional assays such as monitoring the intracellular calcium fluxes that occur within seconds after activation of the Gq coupled receptor.
Briefly, the cells are seeded into 96 well at 5.5×10^4 cells/well with complete culture media (Dulbecco's Modified Eagle Medium with 10% fetal bovine serum, 2 mM L-glutamine, 1 mM sodium pyruvate and 0.5 mg/ml G418, pH 7.4) for the assay next day. On the day of assay, the media is removed and the cells are incubated with 100 μl of loading buffer (4 μM Fluo4-AM in complete culture media containing 2.5 mM Probenicid, 0.5 mg/ml and 0.2% bovine serum albumin) in 5% CO2 incubator at 37° C. for 1 hr. The loading buffer is removed, and the cells are washed with wash buffer (Hank's Balanced Salt Solution containing 2.5 mM Probenicid, 20 mM HEPES, 0.5 mg/ml and 0.2% bovine serum albumin, pH 7.4)). One hundred fifty μl of wash buffer containing various concentrations of test compound is added to the cells, and the cells are incubated in 5% CO2 incubator at 37° C. for 30 min. […] 530 nm for 290 second. When antagonist activity of compound is tested, 50 nM of MCH is used.
Use of FLIPR™ and FDSS6000™ can be accomplished by following manufacturer's instruction (Molecular Device Corporation and […] Photonics K.K.).
With `Cc1cc(N[C@H]2CC[C@@H](C(=O)N[C@H](C)c3cccc(C(F)(F)F)c3)CC2)nc2ccccc12` [Example 3307, cis-4-[(4-methylquinolin-2-yl)amino]-N-{(1R)-1-[3-(trifluoromethyl)phenyl]ethyl}cyclohexanecarboxamide], the IC50 was < 50 nM.
The same measure, in the same setting: the figure for `Cc1cnc(N[C@H]2CC[C@@H](NC(=O)N(C)c3ccccc3OC(F)(F)F)CC2)nc1N(C)C` [Example 3352, N′-(cis-4-{[4-(dimethylamino)-5-methylpyrimidin-2-yl]amino}cyclohexyl)-N-methyl-N-[2-(trifluoromethoxy)-phenyl]urea] is < 50 nM; for `Cc1cnc(N[C@H]2CC[C@@H](NC(=O)N(C)C3(c4ccc(Cl)cc4)CC3)CC2)nc1N(C)C` [Example 3271, N-[1-(4-chlorophenyl)cyclopropyl]-N′-(cis-4-{[4-(dimethylamino)-5-methylpyrimidin-2-yl]amino}cyclohexyl)-N-methylurea] it is 50 to 200 nM.
Regarding `Cc1cnc(N[C@H]2CC[C@@H](NC(=O)Nc3cccc(F)c3)CC2)nc1N(C)C` [Example 3325, N-(cis-4-{[4-(dimethylamino)-5-methylpyrimidin-2-yl]amino}cyclohexyl)-N′-(3-fluorophenyl)urea], the IC50 lay in the range of 50 to 200 nM.

The same test, now with this note: FLIPR/FDSS, antagonist activity vs 50 nM MCH; class by percent of control at 10^−7 M or IC50; table after the classification; read-out: class.
For the compound `CN(C)c1cc(N[C@H]2CC[C@@H](NC(=O)c3csc([N+](=O)[O-])c3)CC2)nc2ccccc12` [Example 3189, 5-Nitro-thiophene-3-carboxylic acid [cis-4-(4-dimethylamino-quinolin-2-ylamino)-cyclohexyl]-amide hydrochloride], the IC50 was < 50 nM.
On the same count and under the same terms, the figure for `Cc1cc(N[C@H]2CC[C@@H](CNC(=O)c3cccnc3Oc3ccccc3)CC2)nc2ccccc12` [Example 3105, N-[cis-4-(4-Methylquinolin-2-ylamino)-cyclohexylmethyl]-2-phenoxy-nicotinamide hydrochloride] is 50 to 200 nM; for `Cc1cc(N[C@H]2CC[C@@H](NC(=O)c3csc([N+](=O)[O-])c3)CC2)nc2ccccc12` [Example 3074, 5-Nitro-thiophene-3-carboxylic acid [cis-4-(4-methyl-quinolin-2-ylamino)-cyclohexyl]-amide hydrochloride] it is < 50 nM.
Still for that read-out and setting: in the case of `O=C(N[C@H]1CC[C@@H](Nc2ccc3ccccc3n2)CC1)c1cccc([N+](=O)[O-])c1` [Example 3045, 3-Nitro-N-[cis-4-(quinolin-2-ylamino)-cyclohexyl]-benzamide hydrochloride] it was < 50 nM.
Still for that read-out and setting: the figure for `Cc1cnc(N[C@H]2CC[C@@H](NC(=O)c3ccc(F)c(Cl)c3)CC2)nc1N(C)C` [Example 3228, 3-Chloro-N-[cis-4-(4-dimethylamino-5-methyl-pyrimidin-2-ylamino)-cyclohexyl]-4-fluoro-benzamide hydrochloride] is < 50 nM.
Take `Nc1cc(N[C@H]2CC[C@@H](NC(=O)c3ccc(F)c(F)c3)CC2)nc2ccccc12` [Example 3235, N-[cis-4-(4-Amino-quinolin-2-ylamino)-cyclohexyl]-3,4-difluoro-benzamide hydrochloride]: the IC50 is < 50 nM.
Same read-out and setting: in the case of `Cc1cccc(C(=O)N[C@H]2CC[C@@H](Nc3cc(C)c4ccccc4n3)CC2)c1` [Example 3075, 3-Methyl-N-[cis-4-(4-methyl-quinolin-2-ylamino)-cyclohexyl]-benzamide hydrochloride] it was < 50 nM; in that of `Cc1cc(N[C@H]2CC[C@@H](NC(=O)c3cc(F)cc(F)c3)CC2)nc2ccccc12` [Example 3166, 3,5-Difluoro-N-[cis-4-(4-methylquinolin-2-ylamino)-cyclohexyl]-benzamide hydrochloride], < 50 nM.
For the compound `Cc1cc(N[C@H]2CC[C@@H](NC(=O)c3ccc(Cl)nc3)CC2)nc2ccccc12` [Example 3175, 6-Chloro-N-[cis-4-(4-methyl-quinolin-2-ylamino)-cyclohexyl]-nicotinamide hydrochloride], the IC50 is < 50 nM.
On the same count and under the same terms, in the case of `Cc1cc(N[C@H]2CC[C@@H](NC(=O)c3ccc(N(C)C)nc3)CC2)nc2ccccc12` [Example 3176, 6-Dimethylamino-N-[cis-4-(4-methyl-quinolin-2-ylamino)-cyclohexyl]-nicotinamide dihydrochloride] it was 50 to 200 nM; in that of `COC(=O)c1cccc(C(=O)N[C@H]2CC[C@@H](Nc3ccc4ccccc4n3)CC2)c1` [Example 3147, N-[cis-4-(Quinolin-2-ylamino)-cyclohexyl]-isophthalamic acid methyl ester hydrochloride], 50 to 200 nM.
`Cc1cc(N[C@H]2CC[C@@H](NC(=O)c3cccc(C#N)c3)CC2)nc2ccccc12` [Example 3087, 3-Cyano-N-[cis-4-(4-methyl-quinolin-2-ylamino)-cyclohexyl]-benzamide hydrochloride]: the IC50 was < 50 nM.
The same measure, in the same setting: the figure for `COc1cc(N[C@H]2CC[C@@H](NC(=O)c3ccc(F)c(F)c3)CC2)nc2ccccc12` [Example 3116, 3,4-Difluoro-N-[cis-4-(4-methoxy-quinolin-2-ylamino)-cyclohexyl]-benzamide hydrochloride] is > 200 nM; for `CNc1ccnc(N[C@H]2CC[C@@H](NC(=O)c3ccc(F)c(Cl)c3)CC2)n1` [Example 3224, 3-Chloro-4-fluoro-N-[cis-4-(4-methylamino-pyrimidin-2-ylamino)-cyclohexyl]-benzamide hydrochloride] it is 50 to 200 nM.
As for `Cc1cc(N[C@H]2CC[C@@H](NC(=O)c3ccc(C#N)cc3)CC2)nc2ccccc12` [Example 3077, 4-Cyano-N-[cis-4-(4-methyl-quinolin-2-ylamino)-cyclohexyl]-benzamide hydrochloride], the IC50 was < 50 nM.
Turning to `CN(C)c1ccnc(N[C@H]2CC[C@@H](NC(=O)c3ccc(-c4ccc(Cl)cc4)o3)CC2)n1` [Example 3199, 5-(4-Chloro-phenyl)-furan-2-carboxylic acid [cis-4-(4-dimethylamino-pyrimidin-2-ylamino)-cyclohexyl]-amide hydrochloride], the IC50 is < 50 nM.
Still for that read-out and setting: the figure for `CN(C)c1ccnc(N[C@H]2CC[C@@H](NC(=O)Cc3ccc(F)c(F)c3)CC2)n1` [Example 3204, 2-(3,4-Difluoro-phenyl)-N-[cis-4-(4-dimethylamino-pyrimidin-2-ylamino)-cyclohexyl]-acetamide hydrochloride] is 50 to 200 nM; for `CNc1cc(N[C@H]2CC[C@@H](NCc3ccc(Br)cc3OC(F)(F)F)CC2)nc2ccccc12` [Example 1, N^2-[cis-4-(4-Bromo-2-triflouromethoxy-benzyl)-amino-cyclohexyl]-N^4-methyl-quinoline-2,4-diamine dihydrochloride] it is 50 to 200 nM.
Take `Cc1cc(N[C@H]2CC[C@@H](NC(=O)c3cncc(Br)c3)CC2)nc2ccccc12` [Example 3185, 5-Bromo-N-[cis-4-(4-methyl-quinolin-2-ylamino)-cyclohexyl]-nicotinamide dihydrochloride]: the IC50 is < 50 nM.
Same read-out and setting: the figure for `Cc1cnc(N[C@H]2CC[C@@H](NC(=O)c3ccc(F)c(F)c3)CC2)nc1N(C)C` [Example 3119, N-[cis-4-(4-Dimethylamino-5-methyl-pyrimidin-2-ylamino)-cyclohexyl]-3,4-difluoro-benzamide hydrochloride] is < 50 nM.
As to `O=C(NC[C@H]1CC[C@@H](Nc2ccc3ccccc3n2)CC1)c1cccnc1Oc1ccccc1` [Example 3069, 2-Phenoxy-N-[cis-4-(quinolin-2-ylamino)-cyclohexylmethyl]-nicotinamide hydrochloride], the IC50 lay in the range of 50 to 200 nM.
Take `CCN(CC(=O)N[C@H]1CC[C@@H](Nc2nccc(N(C)C)n2)CC1)c1ccccc1` [Example 3202, N-[cis-4-(4-Dimethylamino-pyrimidin-2-ylamino)-cyclohexyl]-C-(ethyl-phenyl-amino)-acetamide dihydrochloride]: the IC50 is < 50 nM.
Turning to `CN(C)c1cc(N[C@H]2CC[C@@H](NC(=O)c3ccc(F)c(F)c3)CC2)nc2ccccc12` [Example 3188, N-[cis-4-(4-Dimethylamino-quinolin-2-ylamino)-cyclohexyl]-3,4-difluoro-benzamide hydrochloride], the IC50 is < 50 nM.
For `COc1cccc(C(=O)N[C@H]2CC[C@@H](Nc3cc(C)c4ccccc4n3)CC2)c1` [Example 3076, 3-Methoxy-N-[cis-4-(4-methyl-quinolin-2-ylamino)-cyclohexyl]-benzamide hydrochloride], the IC50 is < 50 nM.
The same measure, in the same setting: in the case of `O=C(N[C@H]1CC[C@@H](Nc2ccc3ccccc3n2)CC1)c1ccc(Br)o1` [Example 3053, 5-Bromo-furan-2-carboxylic acid [cis-4-(quinolin-2-ylamino)-cyclohexyl]-amide hydrochloride] it was < 50 nM.
